The target of one assay is SUMO-activating enzyme (Homo sapiens, UniProt Q9UBT2). Nature of the assay: blockers of SAE1/SAE2–UBC9 SUMO transfer – biochemical, HTRF, uHTS, primary screen (AID 2006). It is filed as protein-complex assay. Background: In TR-FRET formats the signal depends on donor and acceptor labels being close together.
The target of a further assay is T1, Protein RecA (Mycobacterium tuberculosis, UniProt P9WHJ3).
T1 sequence (P9WHJ3 whole entry): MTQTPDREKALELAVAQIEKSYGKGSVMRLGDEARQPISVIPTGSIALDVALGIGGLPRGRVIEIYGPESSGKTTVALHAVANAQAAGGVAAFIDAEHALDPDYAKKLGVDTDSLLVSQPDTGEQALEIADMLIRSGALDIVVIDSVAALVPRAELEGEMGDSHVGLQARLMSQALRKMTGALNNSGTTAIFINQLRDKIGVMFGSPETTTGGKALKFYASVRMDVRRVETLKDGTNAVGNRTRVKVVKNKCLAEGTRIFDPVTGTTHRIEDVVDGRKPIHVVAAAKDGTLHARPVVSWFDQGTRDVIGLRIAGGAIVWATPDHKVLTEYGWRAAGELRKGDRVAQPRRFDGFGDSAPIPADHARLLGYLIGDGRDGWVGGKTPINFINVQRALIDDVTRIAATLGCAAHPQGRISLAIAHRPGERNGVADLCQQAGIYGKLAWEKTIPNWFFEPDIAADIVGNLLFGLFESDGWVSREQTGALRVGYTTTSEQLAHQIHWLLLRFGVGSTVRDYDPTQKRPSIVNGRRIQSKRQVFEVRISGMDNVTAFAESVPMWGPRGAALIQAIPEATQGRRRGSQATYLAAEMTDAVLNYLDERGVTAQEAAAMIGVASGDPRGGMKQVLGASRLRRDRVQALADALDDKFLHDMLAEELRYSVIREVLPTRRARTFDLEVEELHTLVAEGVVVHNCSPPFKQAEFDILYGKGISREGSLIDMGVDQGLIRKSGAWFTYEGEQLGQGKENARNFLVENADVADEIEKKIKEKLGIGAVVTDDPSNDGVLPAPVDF
Kind of assay: Fluorescence Cell-Free Homogeneous Dose Retest to Identify Inhibitors of RecA-Intein Splicing Activity. [Related pubchem assays (depositor defined):AID2097, AID2223, AID489010, AID492950]. Type of assay: functional.

Assay [1] addresses Serine/threonine-protein phosphatase (Homo sapiens, UniProt Q9BPW0). Kind of assay: inhibition of protein phosphatase 5 activity – biochemical, fluorescence, dose response (AID 2395).
A further assay has as its system Vero. Nature of the assay: viability of Vero cells under compound – cytotoxicity control for flavivirus capping enzyme inhibitors (AID 588742). To be noted: Chlorocebus sabaeus. Type of assay: functional.
A short description of assay [2]: Luminescence Cell-Based Dose Response HTS to Identify Inhibitors of 5'UTR Stem-Loop Driven Prion Protein mRNA Translation in H4 Neuroglioblastoma Cells. [Related pubchem assays: 1827 (Project Summary), 1813 (Primary HTS)]. It is filed as functional.
For assay [3], the target named is Serine/threonine-protein kinase Nek2 (Homo sapiens, UniProt P51955). It is filed as functional.
The target of assay [4] is Casein kinase I isoform alpha (Homo sapiens, UniProt P48729). It is filed as functional.
For assay [5], the target named is MAP kinase-activated protein kinase 5 (Homo sapiens, UniProt Q8IW41). Type of assay: functional.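 Further: measured as one member of a kinome panel.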
MAP kinase-activated protein kinase 5, sequence (Q8IW41 whole entry): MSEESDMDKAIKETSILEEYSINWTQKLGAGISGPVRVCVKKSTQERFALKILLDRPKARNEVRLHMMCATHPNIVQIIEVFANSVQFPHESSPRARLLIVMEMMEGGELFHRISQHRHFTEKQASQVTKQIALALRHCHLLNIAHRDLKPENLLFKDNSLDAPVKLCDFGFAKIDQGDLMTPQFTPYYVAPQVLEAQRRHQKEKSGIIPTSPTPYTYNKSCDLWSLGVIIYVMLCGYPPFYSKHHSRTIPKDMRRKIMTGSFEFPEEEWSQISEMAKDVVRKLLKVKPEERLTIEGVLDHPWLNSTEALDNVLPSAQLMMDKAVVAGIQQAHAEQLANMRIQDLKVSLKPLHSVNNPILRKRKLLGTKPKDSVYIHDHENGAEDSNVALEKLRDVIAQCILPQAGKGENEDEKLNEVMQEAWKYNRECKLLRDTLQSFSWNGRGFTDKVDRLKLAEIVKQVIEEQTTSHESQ
Assay [6] has as its target Tyrosine-protein kinase JAK3 (Homo sapiens, UniProt P52333). It is filed as functional.
The target in assay [7] is Serine/threonine-protein kinase PLK4 (Homo sapiens, UniProt O00444). Type of assay: functional.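 Further: PLK4 measured as one member of a kinome-wide kinase profiling panel.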
The target of assay [8] is Mast/stem cell growth factor receptor Kit (Homo sapiens, UniProt P10721). Type of assay: functional.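 Further: KIT entry within a kinase panel assay.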
The target of assay [9] is Mitogen-activated protein kinase kinase kinase kinase 2 (Homo sapiens, UniProt Q12851). Type of assay: functional.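 Further: measured as one member of a kinome-wide kinase panel, with MAP4K2 as the panel entry.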
Assay [10] has as its target Fibroblast growth factor receptor 3 (Homo sapiens, UniProt P22607). It is filed as functional.
Assay [11] deals with cGMP-dependent protein kinase 1 (Homo sapiens, UniProt Q13976). Type of assay: functional.
Assay [12] addresses Vascular endothelial growth factor receptor 2 (Homo sapiens, UniProt P35968). Type of assay: functional.
Assay [13] deals with Serine/threonine-protein kinase pim-2 (Homo sapiens, UniProt Q9P1W9). It is filed as functional.
Assay [14] deals with Mitogen-activated protein kinase 8 (Homo sapiens, UniProt P45983). Type of assay: functional.
For assay [15], the target named is Glycogen synthase kinase-3 beta (Homo sapiens, UniProt P49841). Type of assay: functional.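 Further: value comes from a broad kinome profiling panel, with GSK3B as the panel member.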
Assay [16] deals with Inhibitor of nuclear factor kappa-B kinase subunit epsilon (Homo sapiens, UniProt Q14164). Nature of the assay: Navigating the Kinome. Panel member name: IKBKE. Type of assay: functional.
For assay [17], the target named is Ribosomal protein S6 kinase alpha-3 (Homo sapiens, UniProt P51812). It is filed as functional.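 Further: measured within a kinome-wide profiling panel.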
Assay [18] deals with Calcium/calmodulin-dependent protein kinase type II subunit delta (Homo sapiens, UniProt Q13557). It is filed as functional.
Calcium/calmodulin-dependent protein kinase type II subunit delta, sequence (Q13557 whole entry): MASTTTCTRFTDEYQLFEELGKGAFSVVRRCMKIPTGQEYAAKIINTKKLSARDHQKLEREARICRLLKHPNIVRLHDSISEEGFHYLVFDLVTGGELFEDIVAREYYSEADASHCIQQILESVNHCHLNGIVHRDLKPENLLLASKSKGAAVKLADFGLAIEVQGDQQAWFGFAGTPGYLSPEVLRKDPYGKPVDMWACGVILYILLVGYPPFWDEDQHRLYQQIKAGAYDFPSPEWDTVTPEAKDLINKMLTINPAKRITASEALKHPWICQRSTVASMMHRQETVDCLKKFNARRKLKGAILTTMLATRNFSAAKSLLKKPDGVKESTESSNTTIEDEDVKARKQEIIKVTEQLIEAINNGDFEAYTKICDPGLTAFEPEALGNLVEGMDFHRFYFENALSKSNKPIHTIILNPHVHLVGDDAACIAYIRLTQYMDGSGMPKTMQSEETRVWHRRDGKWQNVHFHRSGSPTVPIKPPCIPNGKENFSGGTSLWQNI
Assay [19] deals with MAP kinase-activated protein kinase 2 (Homo sapiens, UniProt P49137). Type of assay: functional.
MAP kinase-activated protein kinase 2, sequence (P49137 whole entry): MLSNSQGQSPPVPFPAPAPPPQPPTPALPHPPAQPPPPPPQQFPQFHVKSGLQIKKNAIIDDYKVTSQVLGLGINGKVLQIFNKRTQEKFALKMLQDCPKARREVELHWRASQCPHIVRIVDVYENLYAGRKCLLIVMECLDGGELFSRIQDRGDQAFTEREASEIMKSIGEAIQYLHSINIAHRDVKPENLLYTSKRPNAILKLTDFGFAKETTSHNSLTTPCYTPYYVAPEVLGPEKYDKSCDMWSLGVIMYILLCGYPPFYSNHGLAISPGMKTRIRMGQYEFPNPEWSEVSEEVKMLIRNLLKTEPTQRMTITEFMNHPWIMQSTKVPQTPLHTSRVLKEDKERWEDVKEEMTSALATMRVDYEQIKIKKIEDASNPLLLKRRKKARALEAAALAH
In assay [20] the target is Fibroblast growth factor receptor 1 (Homo sapiens, UniProt P11362). It is filed as functional.
Assay [21] deals with Proto-oncogene tyrosine-protein kinase receptor Ret (Homo sapiens, UniProt P07949). It is filed as functional.
Assay [22] addresses Casein kinase I isoform gamma-1 (Homo sapiens, UniProt Q9HCP0). Type of assay: functional.
Assay [23] deals with Tyrosine-protein kinase Fyn (Homo sapiens, UniProt P06241). It is filed as functional.
Assay [24] has as its target Tyrosine-protein kinase receptor TYRO3 (Homo sapiens, UniProt Q06418). Type of assay: functional.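 Further: TYRO3 value obtained as one member of a kinome-wide profiling panel.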
Assay [25] addresses Serine/threonine-protein kinase 3 (Homo sapiens, UniProt Q13188). Type of assay: functional.
Assay [26] concerns the target Mitogen-activated protein kinase kinase kinase kinase 5 (Homo sapiens, UniProt Q9Y4K4). It is filed as functional.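 Further: measured as one member of a kinome-spanning kinase panel.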
In assay [27] the target is G protein-coupled receptor kinase 5 (Homo sapiens, UniProt P34947). Nature of the assay: Navigating the Kinome. Panel member name: GPRK5. It is filed as functional.
For assay [28], the target named is Serine/threonine-protein kinase Chk2 (Homo sapiens, UniProt O96017). Type of assay: functional.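 Further: CHEK2 entry within a kinome-wide screening panel.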
The target in assay [29] is Serine/threonine-protein kinase D2 (Homo sapiens, UniProt Q9BZL6). Type of assay: functional.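 Further: measured against PRKD2 as one member of a kinome-wide kinase profiling panel.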
Serine/threonine-protein kinase D2, sequence (Q9BZL6 whole entry): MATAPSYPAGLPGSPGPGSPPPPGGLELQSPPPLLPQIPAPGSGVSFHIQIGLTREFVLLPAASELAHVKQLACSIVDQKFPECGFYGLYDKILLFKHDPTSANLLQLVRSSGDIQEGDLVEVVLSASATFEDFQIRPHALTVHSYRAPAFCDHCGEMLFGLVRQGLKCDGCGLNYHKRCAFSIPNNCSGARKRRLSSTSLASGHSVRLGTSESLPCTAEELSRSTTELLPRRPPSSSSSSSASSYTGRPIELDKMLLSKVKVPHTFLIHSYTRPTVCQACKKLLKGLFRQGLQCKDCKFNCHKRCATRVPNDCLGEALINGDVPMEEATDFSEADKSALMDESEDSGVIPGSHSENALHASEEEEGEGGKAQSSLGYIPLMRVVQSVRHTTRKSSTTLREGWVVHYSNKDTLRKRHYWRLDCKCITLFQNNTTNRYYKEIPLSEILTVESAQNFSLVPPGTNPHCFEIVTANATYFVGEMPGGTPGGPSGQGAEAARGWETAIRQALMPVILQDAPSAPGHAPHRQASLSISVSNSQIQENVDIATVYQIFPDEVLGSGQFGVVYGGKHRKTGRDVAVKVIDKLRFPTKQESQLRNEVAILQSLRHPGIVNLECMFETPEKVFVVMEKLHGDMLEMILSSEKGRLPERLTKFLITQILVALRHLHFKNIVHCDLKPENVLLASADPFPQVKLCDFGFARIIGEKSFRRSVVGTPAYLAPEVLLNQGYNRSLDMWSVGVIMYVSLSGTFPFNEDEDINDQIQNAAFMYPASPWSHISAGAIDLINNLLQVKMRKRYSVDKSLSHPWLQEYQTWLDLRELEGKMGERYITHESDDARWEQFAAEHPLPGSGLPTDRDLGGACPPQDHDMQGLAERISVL
In assay [30] the target is Induced myeloid leukemia cell differentiation protein Mcl-1 (Homo sapiens, UniProt Q07820). It is filed as functional.
Induced myeloid leukemia cell differentiation protein Mcl-1, sequence (Q07820 whole entry): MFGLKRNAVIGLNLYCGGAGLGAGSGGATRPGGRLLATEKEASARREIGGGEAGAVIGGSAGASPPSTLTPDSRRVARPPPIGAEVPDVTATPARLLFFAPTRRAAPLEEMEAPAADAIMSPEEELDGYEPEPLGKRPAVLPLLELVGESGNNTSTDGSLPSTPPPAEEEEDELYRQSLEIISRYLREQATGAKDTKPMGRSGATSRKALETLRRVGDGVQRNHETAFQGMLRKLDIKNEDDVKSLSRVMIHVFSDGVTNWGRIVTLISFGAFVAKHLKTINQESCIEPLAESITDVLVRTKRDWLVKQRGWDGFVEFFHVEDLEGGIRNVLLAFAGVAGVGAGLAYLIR

Active and inactive are the calls of the source. Some results are limits rather than exact numbers.

Vascular endothelial growth factor receptor 2, sequence (P35968 whole entry): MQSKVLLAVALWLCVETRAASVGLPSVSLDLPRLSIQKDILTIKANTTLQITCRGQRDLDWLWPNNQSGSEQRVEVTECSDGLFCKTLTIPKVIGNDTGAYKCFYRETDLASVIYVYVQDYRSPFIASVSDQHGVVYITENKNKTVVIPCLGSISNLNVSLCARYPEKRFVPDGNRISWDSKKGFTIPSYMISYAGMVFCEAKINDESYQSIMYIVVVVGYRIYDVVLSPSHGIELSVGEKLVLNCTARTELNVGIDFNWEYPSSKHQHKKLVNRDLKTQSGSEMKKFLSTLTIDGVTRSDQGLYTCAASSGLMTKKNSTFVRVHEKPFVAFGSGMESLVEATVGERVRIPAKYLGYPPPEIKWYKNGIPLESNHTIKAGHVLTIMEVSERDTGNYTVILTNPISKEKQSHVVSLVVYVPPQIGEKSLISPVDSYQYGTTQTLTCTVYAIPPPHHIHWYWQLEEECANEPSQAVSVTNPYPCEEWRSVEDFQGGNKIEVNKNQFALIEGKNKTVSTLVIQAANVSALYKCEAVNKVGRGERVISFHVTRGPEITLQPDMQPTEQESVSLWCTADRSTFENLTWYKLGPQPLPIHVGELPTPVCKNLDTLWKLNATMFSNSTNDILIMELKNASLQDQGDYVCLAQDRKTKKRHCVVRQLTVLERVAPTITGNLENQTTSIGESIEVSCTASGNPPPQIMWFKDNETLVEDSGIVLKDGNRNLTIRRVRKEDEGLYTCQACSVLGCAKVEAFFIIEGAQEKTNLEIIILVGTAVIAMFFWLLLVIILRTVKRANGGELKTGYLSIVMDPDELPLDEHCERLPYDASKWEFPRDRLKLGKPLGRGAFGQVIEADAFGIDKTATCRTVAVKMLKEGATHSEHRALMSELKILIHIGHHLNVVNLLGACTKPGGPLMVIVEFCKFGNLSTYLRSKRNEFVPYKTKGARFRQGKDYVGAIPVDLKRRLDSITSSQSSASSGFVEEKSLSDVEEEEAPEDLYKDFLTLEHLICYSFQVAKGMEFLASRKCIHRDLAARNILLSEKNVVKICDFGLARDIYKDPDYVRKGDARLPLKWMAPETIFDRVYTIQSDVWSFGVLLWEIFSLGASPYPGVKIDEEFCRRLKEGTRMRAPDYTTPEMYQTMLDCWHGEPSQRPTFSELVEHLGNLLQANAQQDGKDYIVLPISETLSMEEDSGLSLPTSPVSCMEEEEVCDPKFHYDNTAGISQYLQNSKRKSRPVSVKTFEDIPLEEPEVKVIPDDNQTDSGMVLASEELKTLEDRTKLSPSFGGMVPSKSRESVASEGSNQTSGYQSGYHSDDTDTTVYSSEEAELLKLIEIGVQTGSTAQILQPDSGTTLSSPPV
SUMO-activating enzyme, sequence (Q9UBE0 whole entry): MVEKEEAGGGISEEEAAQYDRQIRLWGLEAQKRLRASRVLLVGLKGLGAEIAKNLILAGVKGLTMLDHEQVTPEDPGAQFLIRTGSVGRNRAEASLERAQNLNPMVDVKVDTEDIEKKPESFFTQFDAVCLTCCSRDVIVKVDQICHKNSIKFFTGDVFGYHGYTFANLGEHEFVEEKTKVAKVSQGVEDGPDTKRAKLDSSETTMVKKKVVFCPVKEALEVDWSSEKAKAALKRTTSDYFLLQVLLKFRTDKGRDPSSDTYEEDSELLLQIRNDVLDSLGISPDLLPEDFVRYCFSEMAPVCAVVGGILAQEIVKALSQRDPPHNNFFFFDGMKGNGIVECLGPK
SUMO-activating enzyme, sequence (Q9UBT2 whole entry): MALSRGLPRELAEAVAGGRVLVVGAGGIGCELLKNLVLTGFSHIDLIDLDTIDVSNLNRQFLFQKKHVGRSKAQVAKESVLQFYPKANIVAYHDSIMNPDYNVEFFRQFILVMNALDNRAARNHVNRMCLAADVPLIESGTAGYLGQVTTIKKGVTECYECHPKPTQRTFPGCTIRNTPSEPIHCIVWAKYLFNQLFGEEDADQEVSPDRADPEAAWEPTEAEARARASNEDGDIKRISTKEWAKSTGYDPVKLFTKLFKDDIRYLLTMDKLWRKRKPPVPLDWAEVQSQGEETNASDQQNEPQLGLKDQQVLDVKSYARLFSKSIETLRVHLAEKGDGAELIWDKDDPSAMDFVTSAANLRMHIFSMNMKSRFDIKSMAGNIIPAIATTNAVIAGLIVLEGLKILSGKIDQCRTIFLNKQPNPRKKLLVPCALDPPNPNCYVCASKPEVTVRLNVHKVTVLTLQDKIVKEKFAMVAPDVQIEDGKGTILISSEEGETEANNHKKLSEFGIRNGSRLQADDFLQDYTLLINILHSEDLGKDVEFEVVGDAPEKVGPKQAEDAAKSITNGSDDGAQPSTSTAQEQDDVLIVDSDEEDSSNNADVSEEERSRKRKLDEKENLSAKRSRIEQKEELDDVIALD

On to `NS(=O)(=O)c1ccc(NC2=CC(=O)C(=O)c3ccccc32)cc1`, for which the 50% inhibitory concentration (IC50) is 9540 nM (active) at SUMO-activating enzyme and > 67000 nM (not active) in assay [1]. In addition, the values for the half-maximal effective concentration (EC50) (on Protein RecA; in [2]) were 667 nM (active) and 24400 nM (active), respectively. Besides, the CC50 in the assay with Vero is 11800 nM (active).
For `Clc1cc(-c2c[nH]c3ncccc23)nc(NC2CCCCC2)n1`, the Ki in [3] is > 10000 nM (inactive); in assay [4] it was 1580 nM (active); in [5], > 1580 nM (inactive); in assay [6], > 3160 nM (inactive); in assay [7], > 3980 nM (inactive); in [8], > 1260 nM (inactive). For the same compound, the Ki in assay [9] is > 1260 nM (inactive); in assay [10], > 2000 nM (inactive); in [11], 794 nM (active); in [12], 2510 nM (active); in [13] it was > 2000 nM (inactive); in [14], > 3160 nM (inactive). Further, the Ki in assay [15] was > 1000 nM (inactive); in assay [16], > 3160 nM (inactive); in assay [17] it was > 2000 nM (inactive); in assay [18], > 1260 nM (inactive); in assay [19], > 7940 nM (inactive); in [20], > 3980 nM (inactive). Moreover, the Ki in assay [21] is > 2000 nM (inactive); in [22], 126 nM (active); in [23], > 794 nM (inactive); in assay [24], > 2510 nM (inactive); in assay [25], > 1580 nM (inactive); in [26], > 2000 nM (inactive). Also, the figures for the Ki in assay [27], in assay [28] and in assay [29] were > 3980 nM (inactive), > 1580 nM (inactive) and 200 nM (active), respectively.
In the case of `O=C(N/N=C/c1ccc(O)cc1O)c1ccc(CN2C(=O)c3cccc4cccc2c34)cc1`, the half-inhibitory concentration (IC50) in assay [30] was 1470 nM (active).

In general, IC50 refers to the point on the concentration scale where inhibition reaches its midpoint. Usually EC50 stands for the concentration that produces a half-maximal response. A word on the CC50: it is the concentration giving 50% cytotoxicity. By Ki is commonly meant a measure of affinity in units of concentration, obtained from inhibition or displacement.

The values above are taken from ChEMBL document CHEMBL1201862, “PubChem BioAssay data set” (2004).
